According to patent US20250388604A1, “Compounds and Their Use as PDE4 Activators” (Mironid Limited, priority 2022, published 2025):

system: m-IMCD3 cells; experiment: Inhibition of PGE2-stimulated in vitro cyst formation in m-IMCD3 cells; format: cell-based, mouse; details: 3 μM; mean cyst area, 100% for (DMSO + PGE2) and 0% for DMSO control; 6 days of culture
How it was run: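 Mean cyst area after 6 days, expressed relative to DMSO+PGE2 (100%) and DMSO alone (0%), from z-stack images. Mouse m-IMCD3 spheroids grew in collagen I/Matrigel gels and received PGE2 (100 nM final) with test compound (0.1% DMSO) starting 18–24 h post-plating, media refreshed at day 2 or 3.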

Compound | % Cyst area after incubation with 3 μM test compound [%]
CC(C(=O)N1CCc2nc(N3C4CCC3CNC4)sc2C1)C(C)(C)C (single isomer, unassigned) [Example 158, 1-(2-(3,8-diazabicyclo[3.2.1]octan-8-yl)-6,7-dihydrothiazolo[5,4-c]pyridin-5(4H)-yl)-2,3,3-trimethylbutan-1-one] | 7

same assay, conditions: Mus musculus, mIMCD3, 144 h, 3 μM; mean cyst area, 100% for (DMSO + PGE2) and 0% for DMSO control; 6 days of culture; read-out: % Cyst area after incubation with 3 μM test compound

Compound | activity at 3 µM [%]
O=C(c1cc2ccccc2[nH]1)N1CCc2nc(N3C4CCC3CNC4)sc2C1 [Example 188, (2-(3,8-diazabicyclo[3.2.1]octan-8-yl)-6,7-dihydrothiazolo[5,4-c]pyridin-5(4H)-yl)(1H-indol-2-yl)methanone] | 3
COC(C(=O)N1CCc2nc(N3C4CCC3CNC4)sc2C1)C1CCCC1 (centres unmarked) [Example 157, 1-(2-(3,8-diazabicyclo[3.2.1]octan-8-yl)-6,7-dihydrothiazolo[5,4-c]pyridin-5(4H)-yl)-2-cyclopentyl-2-methoxyethan-1-one] | 17
O=C([C@@H](O)C1CCCC1)N1CCc2nc(N3C4CCC3CNC4)sc2C1 [Example 170, (2S)-1-(2-(3,8-diazabicyclo[3.2.1]octan-8-yl)-6,7-dihydrothiazolo[5,4-c]pyridin-5(4H)-yl)-2-cyclopentyl-2-hydroxyethan-1-one] | 5
O=C(c1ccccc1C1CC1)N1CCc2nc(N3C4CCC3CNC4)sc2C1 [Example 220, (2-(3,8-diazabicyclo[3.2.1]octan-8-yl)-6,7-dihydrothiazolo[5,4-c]pyridin-5(4H)-yl)(2-cyclopropylphenyl)methanone] | -5
CCN1CCN(c2nc3c(s2)CN(C(=O)CC(C)(C)C)CC3)CC1 [Example 299, 1-(2-(4-ethylpiperazin-1-yl)-6,7-dihydrothiazolo[5,4-c]pyridin-5(4H)-yl)-3,3-dimethylbutan-1-one] | 3
O=C(C1Cc2ccccc2O1)N1CCc2nc(N3C4CCC3CNC4)sc2C1 (centres unmarked) [Example 179, (2-(3,8-diazabicyclo[3.2.1]octan-8-yl)-6,7-dihydrothiazolo[5,4-c]pyridin-5(4H)-yl)(2,3-dihydrobenzofuran-2-yl)methanone] | 2
O=C(Oc1ccccc1)N1CCc2nc(N3C4CCC3CNC4)sc2C1 [Example 247, phenyl 2-(3,8-diazabicyclo[3.2.1]octan-8-yl)-6,7-dihydrothiazolo[5,4-c]pyridine-5(4H)-carboxylate] | 18
CC(C)(CC(=O)N1CCc2nc(N3C4CCC3CNC4)sc2C1)C(F)F [Example 175, 1-(2-(3,8-diazabicyclo[3.2.1]octan-8-yl)-6,7-dihydrothiazolo[5,4-c]pyridin-5(4H)-yl)-4,4-difluoro-3,3-dimethylbutan-1-one] | -5
O=C(Cc1ccc(F)nc1)N1CCc2nc(N3C4CCC3CNC4)sc2C1 [Example 165, 1-(2-(3,8-diazabicyclo[3.2.1]octan-8-yl)-6,7-dihydrothiazolo[5,4-c]pyridin-5(4H)-yl)-2-(6-fluoropyridin-3-yl)ethan-1-one] | 2
CC(C)c1ccccc1C(=O)N1CCc2nc(N3C4CCC3CNC4)sc2C1 [Example 215, (2-(3,8-diazabicyclo[3.2.1]octan-8-yl)-6,7-dihydrothiazolo[5,4-c]pyridin-5(4H)-yl)(2-isopropylphenyl)methanone] | 7
O=C(c1ccc(F)cc1F)N1CCc2nc(N3C4CCC3CNC4)sc2C1 [Example 212, (2-(3,8-diazabicyclo[3.2.1]octan-8-yl)-6,7-dihydrothiazolo[5,4-c]pyridin-5(4H)-yl)(2,4-difluorophenyl)methanone] | 0
O=C([C@H](O)C1CCCCC1)N1CCc2nc(N3C4CCC3CNC4)sc2C1 [Example 177, (2R)-1-(2-(3,8-diazabicyclo[3.2.1]octan-8-yl)-6,7-dihydrothiazolo[5,4-c]pyridin-5(4H)-yl)-2-cyclohexyl-2-hydroxyethan-1-one] | -2
CC1(C)CN(C(=O)[C@H](O)C2CCCC2)Cc2sc(N3C4CCC3CNC4)nc21 [Example 262, (2R)-1-(2-(3,8-diazabicyclo[3.2.1]octan-8-yl)-7,7-dimethyl-6,7-dihydrothiazolo[5,4-c]pyridin-5(4H)-yl)-2-cyclopentyl-2-hydroxyethan-1-one] | 23
O=C(c1ccccc1OC(F)(F)F)N1CCc2nc(N3C4CCC3CNC4)sc2C1 [Example 207, (2-(3,8-diazabicyclo[3.2.1]octan-8-yl)-6,7-dihydrothiazolo[5,4-c]pyridin-5(4H)-yl)(2-(trifluoromethoxy)phenyl)methanone] | 0
O=C(c1cccc(OC(F)(F)F)c1)N1CCc2nc(N3C4CCC3CNC4)sc2C1 [Example 205, (2-(3,8-diazabicyclo[3.2.1]octan-8-yl)-6,7-dihydrothiazolo[5,4-c]pyridin-5(4H)-yl)(3-(trifluoromethoxy)phenyl)methanone] | 0
O=C(c1ccc(F)cc1)N1CCc2nc(N3C4CCC3CNC4)sc2C1 [Example 198, (2-(3,8-diazabicyclo[3.2.1]octan-8-yl)-6,7-dihydrothiazolo[5,4-c]pyridin-5(4H)-yl)(4-fluorophenyl)methanone] | -5

same assay, conditions: Mus musculus, mIMCD3, 144 h, 10 μM; mean cyst area, 100% for (DMSO + PGE2) and 0% for DMSO control; 6 days of culture; read-out: % Cyst area after incubation with 10 μM test compound

Compound | activity at 10 µM [%]
O=C(C1CCCC1)N1CCc2nc(N3C4CCC3CNC4)sc2C1 [Example 22, (2-(3,8-diazabicyclo[3.2.1]octan-8-yl)-6,7-dihydrothiazolo[5,4-c]pyridin-5(4H)-yl)(cyclopentyl)methanone] | -2
Cc1cc(CC(=O)N2CCc3nc(N4C5CCC4CNC5)sc3C2)cc(C)n1 [Example 153, 1-(2-(3,8-diazabicyclo[3.2.1]octan-8-yl)-6,7-dihydrothiazolo[5,4-c]pyridin-5(4H)-yl)-2-(2,6-dimethylpyridin-4-yl)ethan-1-one] | 31
O=C(CCc1ccc(F)nc1)N1CCc2nc(N3C4CCC3CNC4)sc2C1 [Example 142, 1-(2-(3,8-diazabicyclo[3.2.1]octan-8-yl)-6,7-dihydrothiazolo[5,4-c]pyridin-5(4H)-yl)-3-(6-fluoropyridin-3-yl)propan-1-one] | -4
CC1(C)CN(C(=O)CC2CCC(F)(F)CC2)Cc2sc(N3CCNCC3)nc21 [Example 100, 2-(4,4-difluorocyclohexyl)-1-(7,7-dimethyl-2-(piperazin-1-yl)-6,7-dihydrothiazolo[5,4-c]pyridin-5(4H)-yl)ethan-1-one] | -1
O=C(N1CCc2nc(N3C4CCC3CNC4)sc2C1)C1(Oc2ccccc2)CC1 [Example 31, (2-(3,8-diazabicyclo[3.2.1]octan-8-yl)-6,7-dihydrothiazolo[5,4-c]pyridin-5(4H)-yl)(1-phenoxycyclopropyl)methanone] | 7
CC1(C)CCCN1C(=O)N1CCc2nc(N3C4CCC3CNC4)sc2C1 [Example 120, (2-(3,8-diazabicyclo[3.2.1]octan-8-yl)-6,7-dihydrothiazolo[5,4-c]pyridin-5(4H)-yl)(2,2-dimethylpyrrolidin-1-yl)methanone] | 2
CN1CC2CCC(C1)N2c1nc2c(s1)CN(C(=O)COc1ccnc(F)c1)CC2 [Example 79, 2-((2-fluoropyridin-4-yl)oxy)-1-(2-(3-methyl-3,8-diazabicyclo[3.2.1]octan-8-yl)-6,7-dihydrothiazolo[5,4-c]pyridin-5(4H)-yl)ethan-1-one] | -2
CN1CC2CCC(C1)N2c1cc2n(n1)CCN(C(=O)NC1CCC(F)(F)CC1)C2 [Example 85, N-(4,4-difluorocyclohexyl)-2-(3-methyl-3,8-diazabicyclo[3.2.1]octan-8-yl)-6,7-dihydropyrazolo[1,5-a]pyrazine-5(4H)-carboxamide] | -2
CC(C)OCC(=O)N1CCc2nc(N3C4CCC3CNC4)sc2C1 [Example 4, 1-(2-(3,8-diazabicyclo[3.2.1]octan-8-yl)-6,7-dihydrothiazolo[5,4-c]pyridin-5(4H)-yl)-2-isopropoxyethan-1-one] | 12
CN1CC2CCC(C1)N2c1nc2c(s1)CN(C(=O)CC1CCC(F)(F)CC1)CC2(C)C [Example 103, 2-(4,4-difluorocyclohexyl)-1-(7,7-dimethyl-2-(3-methyl-3,8-diazabicyclo[3.2.1]octan-8-yl)-6,7-dihydrothiazolo[5,4-c]pyridin-5(4H)-yl)ethan-1-one] | -1
CC(C)C(=O)N1CCc2nc(N3C4CCC3CNC4)sc2C1 [Example 20, 1-(2-(3,8-diazabicyclo[3.2.1]octan-8-yl)-6,7-dihydrothiazolo[5,4-c]pyridin-5(4H)-yl)-2-methylpropan-1-one] | 9
CC1(C)CC(CC(=O)N2CCc3nc(N4C5CCC4CNC5)sc3C2)C1 [Example 119, 1-(2-(3,8-diazabicyclo[3.2.1]octan-8-yl)-6,7-dihydrothiazolo[5,4-c]pyridin-5(4H)-yl)-2-(3,3-dimethylcyclobutyl)ethan-1-one] | -10
O=C(N1CCc2nc(N3C4CCC3CNC4)sc2C1)N1CCC2(CCC2)C1 [Example 123, (2-(3,8-diazabicyclo[3.2.1]octan-8-yl)-6,7-dihydrothiazolo[5,4-c]pyridin-5(4H)-yl)(6-azaspiro[3.4]octan-6-yl)methanone] | -4
COCC1(CC(=O)N2CCc3nc(N4C5CCC4CNC5)sc3C2)CCCC1 [Example 135, 1-(2-(3,8-diazabicyclo[3.2.1]octan-8-yl)-6,7-dihydrothiazolo[5,4-c]pyridin-5(4H)-yl)-2-(1-(methoxymethyl)cyclopentyl)ethan-1-one] | -6
O=C(CC1CCOCC1)N1CCc2nc(N3C4CCC3CNC4)sc2C1 [Example 3, 1-(2-(3,8-diazabicyclo[3.2.1]octan-8-yl)-6,7-dihydrothiazolo[5,4-c]pyridin-5(4H)-yl)-2-(tetrahydro-2H-pyran-4-yl)ethan-1-one] | 13
